According to patent US20100055217A1, “COSMETIC COMPOSITION COMPRISING A COMBINATION OF LIPOCHROMAN-6 AND AN EXTRACT OF LONGOZA, AND ITS USE” (LVMH RECHERCHE, priority 2008, published 2010):

Test system: oxidized proteins of normal human keratinocytes (NHK)
Assay: Level of oxidized proteins of epidermal cells (DNPH/anti-DNP immunostaining, confocal image analysis)
Type: cell-based
Conditions: for Proportion of oxidized proteins/cell, KHN 0002: NHK donor KHN 0002; for Proportion of oxidized proteins/cell, KHN 0002 / Proportion of oxidized proteins/cell, KHN 9726: 48 h treatment; for Proportion of oxidized proteins/cell, KHN 9726: NHK donor KHN 9726; for DNP marking/no. of cells / DNP marking/surface area measured / Surface area of DNP marking: NHK; for DNP marking/no. of cells / DNP marking/surface area measured / Surface area of DNP marking / Proportion of oxidized proteins/cell, Average / Reduction %/control: 48 h; for Proportion of oxidized proteins/cell, Average / Reduction %/control: average of both NHK donors; for Reduction %/control: vs control excipient
Method: Normal human keratinocytes (NHK) isolated from two samplings of humans skin from two different donors, and referred to hereinafter as KHN002 and KHN9726, are cultured in T75 flasks in complete KSFM medium (Invitrogen GIBCO) at 37° C. and 5% of CO2, and are seeded at 20 000 cells per well in 8-well Lab-Tek II culture systems (Nalge Nunc International).
After 48 h of culture, the cells are treated with the treatment solutions (see below).
A solution of Lipochroman-6 at 0.004% by weight per volume (w/v) is prepared (solution A).
This is done by dissolving 20 mg of lipochroman-6 powder (supplier: Lipotec) in 2 ml of ethanol (solution at 10 mg/ml). This solution is diluted (40 μl of the stock solution in 10 ml of KSFm medium) to give solution A.
Furthermore, a solution of Longoza at 0.2% w/v in the KSFMc medium is prepared (solution B), from the 1% w/v solution prepared in accordance with step g) of Example 1. The 1% w/v Longoza extract solution is diluted ([…] of the 1% w/v solution in 6 ml of KSFm medium) to give said solution B.
The treatment solutions are prepared by diluting solutions A and B, prepared above, in the KSFMc medium to give the correct percentage of each of the actives of the combination (% expressed by weight per volume).
Each treatment is carried out on 3 wells per cell type. • control: KSFMc • solvent control: ethanol 0.1% in KSFMc medium • lipochroman 0.001% • lipochroman 0.002% • lipochroman 0.001%+Longoza 0.05% • lipochroman 0.001%+Longoza 0.1% • lipochroman 0.002%+Longoza 0.05% • lipochroman 0.002%+Longoza 0.1%
After 48 hours of treatment, the KSFM medium is drawn off.
The cells are rinsed with PBS (PBS Tablets, Invitrogen GIBCO), and then fixed on slides by means of formaline (Formalin Solution 10% Neutral Buffered, Sigma) for 10 minutes at ambient temperature. After rinsing with PBS, the culture chambers are filled with a 0.1% Triton solution (Triton X-100, Sigma) for 10 minutes and then rinsed with PBS.
The culture chambers are subsequently disassembled and the slides are immersed in a solution of 2,4-dinitrophenylhydrazine (300 mg of DNPH (Fluka) in an ethanol/sulphuric acid mixture (98.5 ml/1.5 ml)) for 30 minutes.
The DNPH reacts with the carbonyl groups of the oxidized proteins in accordance with the following reaction:
The slides are rinsed ten times with PBS. The cells are then covered with a solution of PBS/BSA at 1% (10 g/l) by weight at ambient temperature for 30 minutes.
The dinitrophenyl (DNP) groups bound to the oxidized proteins are recognized by a primary anti-DNP antibody.
For this purpose, in a first step, the slides are covered with a solution of primary antibody (monoclonal mouse anti-DNP antibody, Sigma), diluted at 1/500 th in a PBS/BSA 1% solution, and are incubated for 60 minutes at ambient temperature in an oven, then rinsed with a PBS-Tween0.1% (Tween20, Merck) solution.
In a second step, the cells are covered with a solution of secondary antibody (Alexafluor 546 Goat anti-mouse, Invitrogen) in a PBS/BSA 1% by weight solution, and are incubated in the absence of light for 60 minutes. The slides are subsequently rinsed with PBS-Tween and then with PBS.
In a third step, a few drops of aqueous mounting medium (Fluorescent Mounting Medium, DAKO, S 3023) are applied to the slides, which are subsequently stored at 4° C. in the dark.
The photographs are taken by confocal microscopy (Axioplan microscope, Zeiss, and Krypton-Argon Laser, BioRad) with the aid of the LaserSharp 2000 software (BioRad). For each condition, three photos are taken with the x40 lens, with the same acquisition parameters (gain, iris).
The excitation wavelength of the fluorochrome is 546 nm and the emission wavelength is 573 nm.
In practice, an exciting fluorescence at […] is applied by the confocal laser to the cells. The fluorochrome Alexafluor 546, which represents the oxidized proteins, emits fluorescence at 573 nm, which is recovered by a specific filter and can be observed. […]

COc1cc2c(cc1O)CCC(C)(C)O2 [lipochroman-6]
Proportion of oxidized proteins/cell, KHN 0002 (lipochroman-6 0.001% w/v): 76.3
Proportion of oxidized proteins/cell, KHN 0002 (lipochroman-6 0.002% w/v): 60.9
Proportion of oxidized proteins/cell, KHN 9726 (lipochroman-6 0.001% w/v): 88
Proportion of oxidized proteins/cell, KHN 9726 (lipochroman-6 0.002% w/v): 43
DNP marking/no. of cells (Lipochroman 0.001%): 82.1
DNP marking/surface area measured (Lipochroman 0.001%): 28.7%
Surface area of DNP marking (Lipochroman 0.001%): 3776
DNP marking/no. of cells (Lipochroman 0.002%): 52.0
DNP marking/surface area measured (Lipochroman 0.002%): 18.4%
Surface area of DNP marking (Lipochroman 0.002%): 2415
Proportion of oxidized proteins/cell, Average (lipochroman-6 0.001% w/v): 82.1
Reduction %/control (lipochroman-6 0.001% w/v): −19.43%
Proportion of oxidized proteins/cell, Average (lipochroman-6 0.002% w/v): 52
Reduction %/control (lipochroman-6 0.002% w/v): −48.97%
